Like-named read-outs stand apart in the source and are kept apart here. Where a SMILES comes first, the peptide text is derived from it. Bridges are numbered along the chain shown (N, C = ends).
What was measured:
RGS8 = target: T1, RGS8 (Homo sapiens, UniProt P57771); experiment: FCPIA, Gαo binding to RGS8
T1 construct: RGS8 full length; made in house
T1 sequence (P57771 1-180): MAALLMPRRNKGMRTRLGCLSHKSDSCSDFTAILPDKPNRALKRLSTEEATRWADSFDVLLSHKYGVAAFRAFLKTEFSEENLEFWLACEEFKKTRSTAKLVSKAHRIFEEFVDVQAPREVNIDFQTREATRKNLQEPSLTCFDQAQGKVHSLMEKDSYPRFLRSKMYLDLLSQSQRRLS
Method: We recently described a bead-based screen in which 2.5 × 10^6 different peptide sequences were prepared as a OBOC library. Fluorescently labeled RGS4 was used to probe the library for peptides that bind RGS4 [5]. […] Since the majority of those hit peptides could bind tightly to the RGS without disrupting GAP activity, they were also tested in the flow cytometry protein interaction assay (FCPIA) (Figure 1), which measures the interaction between RGS4 and Gαo. In this method we used a Luminex flow cytometer to detect the binding of Alexa Fluor 532-labeled Gαo to biotinylated RGS4 on avidin beads in the presence of AMF (AlCl3, MgCl2, NaF and GDP) to put the Gα subunit into a transition state-like conformation. Peptides were tested at 50 μM except where limited by solubility (Table 1).
5nd inhibited Gαo binding to a number of different RGS proteins (Figure 2). […] RGS19 and RGS7 are in the RZ and R7 families, respectively and show less inhibition by 5nd. Linear as well as bridged versions of peptide 5 were tested in the FCPIA since cyclization yields would most likely have been less then 100% in the synthesis of the library leaving some linear peptides present on each bead. […] This may be due to lack of structural rigidity necessary for the correct interaction of the peptide with the RGS protein or a role for chemical reactivity of the disulfide.
Figure 2 Characterization of hit 5. A) and B) Dose response curves for 5nd in the FCPIA with different RGS proteins (RGS Family), (mean ± S.E.M., n = 3) *p < 0.05, **p < 0.01, ***p < 0.001 compared to RGS4 at the same 5nd concentration. C) Peptides were tested at 50 μM as in Figure 1, (mean ± S.E.M., n ≥ 3) *p < 0.05, **p < 0.01, ***p < 0.001 compared to no peptide.
Figure 3 Irreversibility experiments. RGS-biotin on avidin beads was treated with 5nd (100 μM) or 5nm (100 μM) and then washed in buffer (with or without 1 mM DTT) or not washed and put in the FCPIA using RGS4 (A) or RGS8 (B) (mean ± S.E.M., n ≥ 2) *p < 0.05, **p < 0.01, ***p < 0.001 compared to no peptide (100%); #p < 0.05, ##p < 0.01, ###p < 0.001 compared to 5nd no wash.
(§1) Proteins were expressed, purified and labeled as described previously. The mutagenesis was done using the "QuickChange Multi Site-Directed Mutagenesis Kit" from Stratagene according to the manufacturer's protocol. The construct of RGS4 used in these studies is a maltose binding protein (MBP-) fusion protein of the RGS4 sequence from which the amphipathic N-terminal helix has been removed (i.e. MBP-RGS4Δ51N). For simplicity in the text, this will be referred to as RGS4. All other RGS proteins were human sequences and were used as Mpb fusions: RGS7 RGS domain (aa: 305–453), RGS8 full length, RGS16 full length, and RGS19ΔC11 (amino acids 1–209). […]

RGS4 = target: T2, RGS4 (Rattus norvegicus, UniProt P49799); experiment: FCPIA (flow cytometry protein interaction assay), RGS4-Gαo interaction, wild type RGS4 (MBP-RGS4Δ51N); format: binding; conditions: 100 μM
T2 construct: made in house
T2 sequence (P49799 52-205 limits assumed): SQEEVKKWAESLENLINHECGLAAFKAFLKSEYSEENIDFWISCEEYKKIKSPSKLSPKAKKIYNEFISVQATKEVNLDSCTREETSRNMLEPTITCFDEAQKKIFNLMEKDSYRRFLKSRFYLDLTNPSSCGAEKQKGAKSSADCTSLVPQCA

[1] = test system: RGS4 no Cys in C-terminus; experiment: FCPIA, RGS4 mutant with no Cys in C-terminus; format: binding
Method: Since 5nd forms an irreversible, DTT-sensitive bond with RGS, it was suspected that it binds covalently to a cysteine in the protein through a disulfide bridge. Indeed, removal of all 7 cysteines (termed the -7C mutant) from RGS4 greatly diminished 5nd activity (logIC50 of -3.24 ± 0.14 for -7C vs. -4.36 ± 0.02 for wild type) (Figure 5, Table 2).
Figure 5 Dose curves of 5nd on various RGS4 cysteine mutants. Various concentrations of 5nd were tested for disruption of the RGS4-Gαo interaction for C95A (5 nM), or […], C71A (5nM) or C148A (5nM) (B), A95C in the -7C (5nM), or A132C in the -7C (5nM) (C), A71C in the -7C (5nM), or A148C in the -7C (5nM) (D) or the mutant with no cysteines in the domain (20 nM) or the C-terminus (20 nM) (E) in the FCPIA (mean ± S.E.M., n ≥ 3).
as §1, with “RGS4.” for “RGS4. All other RGS proteins were human sequences and were used as Mpb fusions: RGS7 RGS domain (aa: 305–453), RGS8 full length, RGS16 full length, and RGS19ΔC11 (amino acids 1–209).”

Work on `CC(C)C[C@@H]1NC(=O)CNC(=O)[C@H](CCCCN)NC(=O)[C@@H](NC(=O)[C@H](Cc2c[nH]c3ccccc23)NC(=O)[C@@H](N)Cc2ccc(O)cc2)CSSC[C@@H](C(=O)N[C@@H](CCCCN)C(N)=O)NC1=O` [Peptide 5nd, Tyr-Trp-c [Cys-Lys-Gly-Leu-Cys]-Lys-NH2, S-S] (H-YWCKGLCK-NH2; disulfide 3-7) yielded an inhibition at 100 µM (RGS8; beads washed in buffer with 1 mM DTT, read-out: percent inhibition, RGS8, DTT wash) of 10 ± 3%, an inhibition at 100 µM (RGS8; beads washed in buffer without DTT, read-out: percent inhibition, RGS8, wash) of 50 ± 3% and an inhibition at 100 µM (RGS8; no wash, read-out: percent inhibition, RGS8) of 64 ± 2%. For the same compound, the inhibition at 100 µM (RGS4; beads washed in buffer with 1 mM DTT, read-out: percent inhibition of RGS4-Gαo after DTT wash) was 15 ± 4%, the inhibition at 100 µM (RGS4; beads washed in buffer without DTT, read-out: percent inhibition of RGS4-Gαo remaining after washing of the beads) was 75 ± 11% and the “5nd logIC50” value [1] was -4.39 ± 0.07 M.
